The values below come from patent US20100305121A1, “NOVEL ANTAGONISTS OF THE HUMAN FATTY ACID SYNTHASE THIOESTERASE” (priority 2006, published 2010).

SMILES strings stand for the structures.

The target of data set [1] is T1, human FAS TE (Homo sapiens, UniProt P49327).
T1 construct: Expression of the recombinant thioesterase domain of FAS using pTrcHis-TOPO vector (Invitrogen) was as described in Kridel et al. (2004); His tag (from pTrcHis-TOPO vector)
Briefly: Fluorogenic 4-MUH screening assay of recombinant FAS TE (primary and secondary screen). The class given is biochemical.

The target of data set [2] is T2, FAS holoenzyme (Homo sapiens, UniProt P49327).
T2 construct: Fatty acid synthesis by the FAS holoenzyme in cell lysates was measured by incorporation of; endogenous in cells; host or cells: MDA-MB-435 cell lysate
T2 sequence (P49327 2-2511 limits assumed): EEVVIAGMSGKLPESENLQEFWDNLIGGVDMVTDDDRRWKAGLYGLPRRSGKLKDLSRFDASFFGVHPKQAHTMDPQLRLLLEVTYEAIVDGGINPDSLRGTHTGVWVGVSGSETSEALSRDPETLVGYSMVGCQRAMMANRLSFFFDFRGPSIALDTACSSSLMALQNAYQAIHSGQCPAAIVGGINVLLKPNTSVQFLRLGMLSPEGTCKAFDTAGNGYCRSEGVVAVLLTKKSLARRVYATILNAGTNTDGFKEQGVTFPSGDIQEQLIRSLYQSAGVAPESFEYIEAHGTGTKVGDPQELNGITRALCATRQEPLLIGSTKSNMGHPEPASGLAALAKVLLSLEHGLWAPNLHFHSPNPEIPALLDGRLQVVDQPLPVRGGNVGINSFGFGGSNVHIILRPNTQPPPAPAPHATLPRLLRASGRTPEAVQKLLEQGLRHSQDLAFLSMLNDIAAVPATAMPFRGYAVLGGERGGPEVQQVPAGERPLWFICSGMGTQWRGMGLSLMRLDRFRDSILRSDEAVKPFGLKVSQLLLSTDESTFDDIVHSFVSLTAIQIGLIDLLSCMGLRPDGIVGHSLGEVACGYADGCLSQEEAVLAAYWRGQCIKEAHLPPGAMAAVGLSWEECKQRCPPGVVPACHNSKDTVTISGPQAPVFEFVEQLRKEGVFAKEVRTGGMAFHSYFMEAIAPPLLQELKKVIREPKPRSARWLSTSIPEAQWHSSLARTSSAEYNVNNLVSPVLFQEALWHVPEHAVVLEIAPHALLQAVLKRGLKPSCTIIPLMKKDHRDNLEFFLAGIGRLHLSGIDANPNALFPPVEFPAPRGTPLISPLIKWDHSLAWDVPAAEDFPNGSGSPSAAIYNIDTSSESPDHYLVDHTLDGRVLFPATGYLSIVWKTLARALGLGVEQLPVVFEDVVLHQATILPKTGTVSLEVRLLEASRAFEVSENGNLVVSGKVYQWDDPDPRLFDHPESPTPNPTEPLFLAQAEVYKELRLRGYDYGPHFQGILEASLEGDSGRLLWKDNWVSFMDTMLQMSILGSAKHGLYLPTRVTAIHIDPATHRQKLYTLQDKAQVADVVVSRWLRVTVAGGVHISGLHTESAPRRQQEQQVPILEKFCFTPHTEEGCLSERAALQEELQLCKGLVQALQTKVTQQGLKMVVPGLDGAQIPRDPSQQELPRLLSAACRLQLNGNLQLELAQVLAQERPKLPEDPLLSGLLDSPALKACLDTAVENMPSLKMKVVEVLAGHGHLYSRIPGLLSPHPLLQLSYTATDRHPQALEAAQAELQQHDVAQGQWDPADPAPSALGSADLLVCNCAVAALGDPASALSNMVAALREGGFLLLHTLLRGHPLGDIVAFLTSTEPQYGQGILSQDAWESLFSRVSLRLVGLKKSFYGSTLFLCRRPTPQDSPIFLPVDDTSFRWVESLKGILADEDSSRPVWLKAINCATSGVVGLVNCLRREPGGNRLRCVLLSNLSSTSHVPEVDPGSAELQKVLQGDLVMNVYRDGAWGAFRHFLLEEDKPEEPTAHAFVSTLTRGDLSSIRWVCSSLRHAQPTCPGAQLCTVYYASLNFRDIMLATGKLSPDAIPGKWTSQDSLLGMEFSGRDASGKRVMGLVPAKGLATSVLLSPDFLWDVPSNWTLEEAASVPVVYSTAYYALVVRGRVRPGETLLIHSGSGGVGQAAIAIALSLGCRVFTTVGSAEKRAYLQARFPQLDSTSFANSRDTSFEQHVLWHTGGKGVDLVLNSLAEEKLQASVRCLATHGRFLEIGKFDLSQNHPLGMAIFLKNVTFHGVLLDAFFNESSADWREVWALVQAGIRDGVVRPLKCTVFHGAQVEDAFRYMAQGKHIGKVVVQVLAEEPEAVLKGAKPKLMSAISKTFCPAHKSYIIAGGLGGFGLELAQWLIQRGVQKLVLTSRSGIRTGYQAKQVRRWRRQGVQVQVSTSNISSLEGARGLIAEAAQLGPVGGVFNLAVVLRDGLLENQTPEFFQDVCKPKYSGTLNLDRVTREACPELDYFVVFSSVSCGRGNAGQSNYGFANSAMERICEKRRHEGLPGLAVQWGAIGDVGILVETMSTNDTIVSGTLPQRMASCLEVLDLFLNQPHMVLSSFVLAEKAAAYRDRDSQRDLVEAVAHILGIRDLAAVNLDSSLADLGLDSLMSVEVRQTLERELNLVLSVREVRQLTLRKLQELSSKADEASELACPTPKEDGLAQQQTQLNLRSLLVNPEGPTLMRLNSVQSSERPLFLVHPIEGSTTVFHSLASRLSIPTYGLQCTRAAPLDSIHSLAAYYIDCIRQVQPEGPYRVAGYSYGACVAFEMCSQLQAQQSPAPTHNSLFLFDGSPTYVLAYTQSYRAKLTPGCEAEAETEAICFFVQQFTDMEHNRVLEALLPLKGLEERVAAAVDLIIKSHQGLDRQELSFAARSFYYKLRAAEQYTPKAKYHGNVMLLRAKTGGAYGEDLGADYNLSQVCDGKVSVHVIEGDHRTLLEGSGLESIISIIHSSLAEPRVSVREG
Briefly: Fatty acid synthesis in vitro, [14C] malonyl-CoA incorporation in MDA-MB-435 cell lysates. It counts as biochemical. As to conditions: for effect on fatty acid biosynthesis in cell lysates: 6.3 to 50 μM.

Data set [3] deals with T1, human FAS TE. Briefly: Kinetic characterization of inhibitors, 4-MUH turnover by FAS TE. It counts as biochemical.
Data set [4] in a line: Cytotoxicity, MTS assay. As to conditions: human, MDA-MB-435 breast carcinoma cells, Cytotoxicity IC50 (μM), MDA-MB-435 cells. A general note: Formazan colour is commonly taken as a measure of viable cells.
For data set [5], the target named is T2, FAS holoenzyme. Briefly: Activity-based probe FP-BODIPY labeling of FAS TE active site in MDA-MB-435 cell lysates. The settings on record: MB-MDA-435 cell lysates, 50 nM probe. The class given is binding.
Data set [6] relates to MDA-MB-435 breast carcinoma cells. In words: Cytotoxicity, MTS assay. As to conditions: read-out: Cytotoxicity IC50, MDA-MB-435 cells, 48 hours.

T1 sequence (P49327 2207-2511 limits assumed): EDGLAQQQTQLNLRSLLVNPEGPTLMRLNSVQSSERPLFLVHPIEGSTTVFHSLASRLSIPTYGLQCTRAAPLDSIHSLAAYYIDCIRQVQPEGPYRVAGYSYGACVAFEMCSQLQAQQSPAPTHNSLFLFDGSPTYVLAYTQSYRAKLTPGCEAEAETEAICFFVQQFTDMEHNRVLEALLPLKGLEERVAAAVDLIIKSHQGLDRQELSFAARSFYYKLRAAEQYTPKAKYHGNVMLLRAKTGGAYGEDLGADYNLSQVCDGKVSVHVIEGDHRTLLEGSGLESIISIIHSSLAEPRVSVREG

In the case of `O=C1NC(=O)C(=Cc2ccc(-c3cc([N+](=O)[O-])ccc3O)o2)C(=O)N1` [RDR256 (5), 5-((5-(2-hydroxy-5-nitrophenyl)furan-2-yl)methylene)pyrimidine-2,4,6(1H,3H,5H)-trione], the IC50 – broadly, the concentration needed to halve the response being measured – in data set [1] came out at 9.2 µM.

In the case of `Cc1ccc(Br)c(-c2ccc(C=C3C(=O)NC(=S)NC3=O)o2)c1` [RDR019 (1), 5-((5-(2-bromo-5-methylphenyl)furan-2-yl)methylene)-2-thioxodihydropyrimidine-4,6(1H,5H)-dionc], in data set [2], the IC50 was roughly 20 µM and the “effect on fatty acid biosynthesis in cell lysates” value is “completely abrogated fatty acid biosynthesis”. For the same molecule, in data set [3], affinity was put at a Ki of 0.11 µM, the “partial versus pure non-competitive inhibition (Km/Vmax(i) versus [I])” value is on record as “partial non-competitive inhibitor” and the “type of inhibition of FAS TE (double reciprocal plots)” value is “non-competitive inhibitors”. Besides, half-maximal inhibition in data set [4] (IC50 at 48 h) required 20.6 µM.

Turning to `O=C1NC(=S)NC(=O)C1=Cc1ccc(-c2ccc(C(=O)O)cc2)o1` [RDR423 (4), 4-(5-((4,6-dioxo-2-thioxotetrahydropyrimidin-5(6H)-ylidene)methyl)furan-2-yl)benzoic acid], in data set [1], the IC50 stood at 5.3 µM.

Turning to `COc1ccc(-c2ccc(C=C3C(=O)NC(=S)NC3=O)o2)c([N+](=O)[O-])c1` [RDR924 (3), 5-((5-(4-methoxy-2-nitrophenyl)furan-2-yl)methylene)-2-thioxodihydropyrimidine-4,6(1H,5H)-dione], the “concentration of complete inhibition of FP-BODIPY binding” value in data set [5] is on record as “approximately 50 μM”. In data set [1], the IC50 came out at 4.4 µM.

`COc1cccc(N2C(=O)NC(=O)/C(=C/C/C=C/c3ccccc3[N+](=O)[O-])C2=O)c1` [RDR203 (9), (Z)-1-(3-methoxyphenyl)-5-((E)-4-(2-nitrophenyl)but-3-enylidene)pyrimidine-2,4,6(1H,3H,5H)-trione]: in data set [1], the half-maximal inhibitory concentration (IC50) is 2 µM.

Turning to `CN(C)c1ccc(C/C=C2/C(=O)NC(=S)N(c3ccccc3F)C2=O)cc1` [RDR057 (10), (Z)-5-(2-(4-(dimethylamino)phenyl)ethylidene)-1-(2-fluorophenyl)-2-thioxodihydropyrimidine-4,6(1H,5H)-dione], the IC50 in data set [1] is 4.3 µM.

Regarding `CCOc1ccc(C/C=C2/C(=O)NC(=O)N(c3ccc(OCC)cc3)C2=O)cc1` [RDR506 (11), (Z)-1-(4-ethoxyphenyl)-5-(2-(4-ethoxyphenyl)ethylidene)pyrimidine-2,4,6(1H,3H,5H)-trione], the IC50 in data set [1] is 14.5 µM.

For the molecule `CN1C(=O)NC(=O)/C(=C/c2ccc(-c3ccc([N+](=O)[O-])cc3Br)o2)C1=O` [RDR102 (2), (Z)-5-((5-(2-bromo-4-nitrophenyl)furan-2-yl)methylene)-1-methylpyrimidine-2,4,6(1H,3H,5H)-trione], in data set [2], the IC50 was roughly 20 µM and the “effect on fatty acid biosynthesis in cell lysates” value is “completely abrogated fatty acid biosynthesis”. Further, in data set [3], affinity was put at a Ki of 0.1 µM. The same molecule registered an IC50 at 48 h in data set [4] of 14.2 µM. In data set [5], the “concentration of complete inhibition of FP-BODIPY binding” value is “approximately 50 μM”.

Consider `Cc1cccc(N2C(=O)NC(=O)/C(=C/Nc3ccccc3C)C2=O)c1` [RDR564 (12), (Z)-1-m-tolyl-5-((o-tolylamino)methylene)pyrimidine-2,4,6(1H,3H,5H)-trione], for which the IC50 in data set [1] is 105 µM.

In the case of `O=C1NC(=O)C(=Cc2ccc(-c3ccccc3C(=O)O)o2)C(=O)N1` [RDR317 (6), 2-(5-((2,4,6-trioxotetrahydropyrimidin-5(6H)-ylidene)methyl)furan-2-yl)benzoic acid], the IC50 in data set [1] was determined as 29 µM.

In the case of `O=C1NC(=O)N(c2ccccc2)C(=O)/C1=C\C/C=C/c1ccccc1[N+](=O)[O-]` [RDR914 (8), (Z)-5-((E)-4-(2-nitrophenyl)but-3-enylidene)-1 - phenylpyrimidine-2,4,6(1H,3H,5H)-trione], in data set [4], 9.5 µM corresponded to half-maximal inhibition (IC50 at 48 h). Moreover, the IC50 in data set [6] stood at 9.53 µM; in data set [1], 1.5 µM.

For the molecule `COc1ccc(N2C(=O)NC(=O)/C(=C/C/C=C/c3ccccc3)C2=O)c(OC)c1` [RDR755 (7), (Z)-1-(2,4-dimethoxyphenyl)-5-((E)-4-phenylbut-3-enylidene)pyrimidine-2,4,6(1H,3H,5H)-trione], in data set [3], the inhibition constant (Ki) – broadly, the equilibrium dissociation constant of an inhibitor or competing ligand from its target – is 0.12 µM and the “type of inhibition of FAS TE (double reciprocal plots)” value was “non-competitive inhibitors”. In data set [4], this molecule displayed an IC50 at 48 h of 1.6 µM. Besides, in data set [6], the 50% inhibitory concentration (IC50) amounted to 1.61 µM.
